Data taken from PMC5750218, “Protein-inspired antibiotics active against vancomycin- and daptomycin-resistant bacteria” (Nature Communications, 2018).
In brackets after ≈: the same amount, converted by molar mass. Where two headings read alike, the source gives them in different places.

Tests used:
Haemolysis assay = format: cell-based; conditions: human, read-out: % Human Whole Blood Haemolysis
in vitro = conditions: human, 50% human plasma (pooled, sodium heparin) in PBS, pH 7.4
[1] = 37 °C, 20 µM
[2] = In vivo pharmacokinetics in mice; conditions: mouse; for concentration at […]: 0.250 h; for concentration at 0.5 h: 0.500 h; for MRT inf: read-out: MRT0-inf; for MRT last: read-out: MRT0-last
Method: Performed by WuXi AppTec (Shanghai) Co., Ltd. Seven to 9-week-old male CD1 mice (SLAC Laboratory Animal Co. Ltd., Shanghai, China) weighing 25–35 g were acclimated for approximate 3 days before being used in the study. Animals are group housed during acclimation and in-life study in compliance with the National Research Council 'Guide for the Care and Use of Laboratory Animals.' The animal room environment is controlled (target conditions: temperature 18 to 26 °C, relative humidity 30–70%, 12 h artificial light and 12 h dark) with temperature and relative humidity monitored daily. Animals were deprived of food for approximately 16 h before formulation administration then allowed access to Certified Rodent Diet (Catalogue # M-01F, Shanghai SLAC Laboratory Animal Co. Ltd.) ad libitum 4 h post dosing. Water was autoclaved before being provided to the animals ad libitum. Formulations of compounds were prepared on the morning of the dosing day. The formulation for the IV group was filtered with filter of 0.22 μm before being dosed to animals. After dose formulation preparation, duplicate 50 μL aliquots were removed from each dose formulation for use in dose validation. For each compound studied, three mice were dosed intravenously (IV) administered to each animal via tail vein per facility SOPs using test article formulated in deionised water at 1 mg mL^−1 with a dose volume of 2 mg mL^−1, providing a dose of 2 mg mL^−1 (based on free base concentration). An additional three mice were dosed subcutaneously (SC) administered to each animal via subcutaneous bolus on each animals’ back per facility SOPs using test article formulated in deionised water at 2 mg mL^−1 with a dose volume of 5 mg mL^−1, providing a dose of 10 mg mL^−1. All animals were killed at the last study time point (100% CO2 was introduced into the animal box).
Plasma samples were collected as the following target times after each dose administration: IV Sampling Time points (hours post dosing): 0, 0.083, 0.25, 0.5, 1, 2, 4, 8 and 24. SC Sampling Time points (hours post dosing): 0, 0.25, 0.5, 1, 2, 4, 8 and 24. Approximately 30 μL blood was obtained via submandibular or saphenous vein for the first several time points. For the last time point, samples were collected via cardiac puncture while the mouse was under anaesthesia. All blood samples were transferred into pre-chilled plastic microcentrifuge tubes containing 2 μL of ethylenediaminetetraacetic acid dipotassium salt (K2-EDTA) (0.5 M) as anticoagulant and placed on wet ice until centrifugation. Harvested blood samples were centrifuged within 30 min of collection at 7000 rpm (8546 × g) 4 °C for about 10 min. After centrifugation, plasma was transferred into another pre-labelled and pre-chilled polypropylene microcentrifuge tubes, then quick-frozen over dry ice and stored at −70 ± 10 °C until LC/MSMS analysis.
LC-MS/MS methods for the quantitative determination of the test article in mouse plasma were developed with an internal standard. Benchtop stability of the compound in mouse plasma was determined at mid QC concentrations in triplicate at 0, 2 h at room temperature. The stability was determined using mean peak area ratio of T2/T0 sample. If the mean peak area ratio is within 80%~120%, the test article in the plasma is considered stable for 2 h at room temperature. […] A set of QC samples consists of three concentration levels (low, middle and high). The sample analysis was performed concurrently with a set of calibration standards and two sets of QC samples using the LC-MS/MS method.
Plasma concentration vs. time data from individual animals was analysed by WinNonLin non-compartmental model (Phoenix WinNonlin 6.2.1, Pharsight, Mountain View, CA). Pharmacokinetic parameter C 0, T ½, CL, Vdss, C max, T max, AUC0-last, AUC0-inf, %F, MRT0-last, MRT0-inf and graphs of plasma concentration vs. time profile were derived.

[3] = system: S. aureus ATCC 43300 MRSA; assay: microbe, parasite or virus in culture; format: cell-based, Staphylococcus aureus; conditions: Staphylococcus aureus, 24 h
Method: The compounds, along with standard antibiotics were serially diluted twofold across the wells of 96-well non-binding surface (NBS) polystyrene plates (Corning 3641). […] Standards ranged from 64 to 0.03 µg mL^−1 and compounds from 8 to 0.003 µg mL^−1 with final assay volumes of 100 µL per well. Gram-positive bacteria were cultured in Mueller Hinton broth (MHB) (Bactolaboratories, Cat. no. 211443) at 37 °C overnight. A sample of each culture was then diluted 40-fold in fresh MHB and incubated at 37 °C for 2–3 h. The resultant mid-log phase cultures were added to the compound-containing 96-well plates to give a final cell density of 5 × 10^5 colony forming unit (CFU) mL^−1. All the plates were covered and incubated at 37 °C for 24 h. MICs were the lowest concentration showing no visible growth.

S. pneumoniae ATCC 33400 = assay: microbe, parasite or virus in culture; format: cell-based, Streptococcus pneumoniae; conditions: Streptococcus pneumoniae, ATCC33400, 24 h
How it was run: (§1)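 Twofold broth microdilution in Mueller Hinton broth used compounds from 8 to 0.003 µg mL^−1. Mid-log cultures were added at 5 × 10^5 CFU mL^−1 and incubated for 24 h at 37 °C. MIC was the lowest concentration with no visible growth.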

[4] = system: S. pneumoniae ATCC 700677 MDR; assay: microbe, parasite or virus in culture; format: cell-based, Streptococcus pneumoniae; conditions: Streptococcus pneumoniae, ATCC700677, 24 h
How it was run: as §1

[5] = system: Bacillus subtilis ATCC 6633; assay: microbe, parasite or virus in culture; format: cell-based; conditions: for MIC: Bacillus subtilis; for Molar excess of Ac2Kaa ligand required to antagonise antibacterial activity: [ligand]/[antibiotic], B. subtilis ATCC 6633, 24 h
Cytotoxicity MTT assay = format: cell-based, human; conditions: human; 24 h, MTT, 1% FBS; read-out: Cytotoxicity CC50 HEK293
How it was run: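 Duplicate wells were used, with viability calculated against untreated and positive-control wells. Readout was MTT reduction: 2 h with 0.4 mg mL^−1 MTT, formazan dissolved in DMSO, absorbance at 570 nm. Before that, compound was applied 24 h at 37 °C over 100–0.046 µM (threefold dilutions) to HepG2 or HEK293 cells seeded 24 h earlier in DMEM/1% FBS.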

[6] = male, CD1, plasma, 2 mg/kg IV, read-out: Plasma concentration, Mean IV
[7] = male, CD1, plasma, 10 mg/kg SC, read-out: Plasma concentration, Mean SC
[8] = male, CD1, plasma, IV 2 mg kg-1
[9] = male, CD1, plasma, SC 10 mg kg-1

CN[C@H](CC(C)C)C(=O)N[C@H]1C(=O)N[C@@H](CC(N)=O)C(=O)N[C@H]2C(=O)N[C@H]3C(=O)N[C@H](C(=O)N[C@H](C(=O)O)c4cc(O)cc(O)c4-c4cc3ccc4O)[C@H](O)c3ccc(c(Cl)c3)Oc3cc2cc(c3O[C@@H]2O[C@H](CO)[C@@H](O)[C@H](O)[C@H]2O[C@H]2C[C@](C)(N)[C@H](O)[C@H](C)O2)Oc2ccc(cc2Cl)[C@H]1O [Compound 1, Vancomycin]
hemolysis at 3 h, 25 µg mL-1 (Haemolysis assay; 25 µg mL-1): 0.1% | hemolysis at 3 h, 50 µg mL-1 (Haemolysis assay; 50 µg mL-1): 0.4% | hemolysis at 3 h, 100 µg mL-1 (Haemolysis assay; 100 µg mL-1): 0.3% | hemolysis at 3 h, 200 µg mL-1 (Haemolysis assay; 200 µg mL-1): 0.8% | hemolysis at 3 h, 400 µg mL-1 (Haemolysis assay; 400 µg mL-1): 0.8% | hemolysis at 3 h, 800 µg mL-1 (Haemolysis assay; 800 µg mL-1): 0.8% | hemolysis at 3 h, 1600 µg mL-1 (Haemolysis assay; 1600 µg mL-1): 1.5% | remaining at 1 h, 20 µM (in vitro): 100% | remaining at 3 h, 20 µM (in vitro): 87% | remaining at 6 h, 20 µM (in vitro): 91% | remaining at 24 h, 20 µM (in vitro): 63% | % compound remaining after incubation in 50% human plasma, 0h [1]: 100% | bioavailability ([2]; male, CD1, plasma, subcutaneous, SC 10 mg kg-1 vs IV 2 mg kg-1): 70.5% | concentration at 5 min ([2]; male, CD1, plasma, 2 mg/kg IV, 5 min, n=3): 5790 ng/mL | concentration at […] [2, 6]: 3590 ng/mL | concentration at 0.5 h [2, 6]: 1980 ng/mL | concentration at 1 h [2, 6]: 762 ng/mL | concentration at 2 h [2, 6]: 193 ng/mL | concentration at 4 h [2, 6]: 27.5 ng/mL | concentration at […] ([2]; male, CD1, plasma, 10 mg/kg SC, n=3, read-out: Plasma concentration, Mean SC): 10700 ng/mL | concentration at 0.5 h [2, 7]: 9580 ng/mL | concentration at 1 h [2, 7]: 5200 ng/mL | concentration at 2 h [2, 7]: 1270 ng/mL | concentration at 4 h [2, 7]: 137 ng/mL | concentration at 8 h ([2]; male, CD1, plasma, 10 mg/kg SC, 8.00 h): 6.17 ng/mL | AUC(0-inf) [2, 8]: 3240 ng·h/mL | AUC(0-t) [2, 8]: 3210 ng·h/mL | C0 [2, 8]: 7360 ng/mL | clearance [2, 8]: 10.4 mL/min/kg | half-life [2, 8]: 38.4 min | MRT inf [2, 8]: 37.2 min | MRT last [2, 8]: 35.4 min | Vd ([2]; male, CD1, plasma, IV 2 mg kg-1, read-out: Vdss): 0.39 L/kg | AUC(0-inf) [2, 9]: 11400 ng·h/mL | AUC(0-t) [2, 9]: 11400 ng·h/mL | Cmax [2, 9]: 10700 ng/mL | Tmax [2, 9]: 15 min | half-life [2, 9]: 48 min | MRT inf [2, 9]: 59.4 min | MRT last [2, 9]: 58.8 min | AUC0-inf/AUC0-last ([2]; IV 2 mg kg-1): 101% | Tlast ([2]; IV 2 mg kg-1): 4 h | AUC0-inf/AUC0-last ([2]; SC 10 mg kg-1): 100% | Tlast ([2]; SC 10 mg kg-1): 8 h | MIC ([3]; read-out: MIC S. aureus ATCC 43300 MRSA, 1% Survanta): 0.5 µg/mL (≈ 0.345 µM) | MIC ([3]; read-out: MIC S. aureus ATCC 43300 MRSA, 5% Survanta): 0.5 µg/mL (≈ 0.345 µM) | MIC ([3]; read-out: MIC S. aureus ATCC 43300 MRSA, no added Survanta): 0.5 µg/mL (≈ 0.345 µM) | MIC (S. pneumoniae ATCC 33400; read-out: MIC S. pneumoniae ATCC 33400, 1% Survanta): 0.5 µg/mL (≈ 0.345 µM) | MIC (S. pneumoniae ATCC 33400; read-out: MIC S. pneumoniae ATCC 33400, 5% Survanta): 0.5 µg/mL (≈ 0.345 µM) | MIC (S. pneumoniae ATCC 33400; read-out: MIC S. pneumoniae ATCC 33400, no added Survanta): 0.5 µg/mL (≈ 0.345 µM) | MIC ([4]; read-out: MIC S. pneumoniae ATCC 700677 MDR, 1% Survanta): 0.5 µg/mL (≈ 0.345 µM) | MIC ([4]; read-out: MIC S. pneumoniae ATCC 700677 MDR, 5% Survanta): 0.5 µg/mL (≈ 0.345 µM) | MIC ([4]; read-out: MIC S. pneumoniae ATCC 700677 MDR, no added Survanta): 0.5 µg/mL (≈ 0.345 µM) | MIC ([5]; ATCC6633): 0.25 µg/mL (≈ 0.173 µM) | MIC ([5]; ATCC6633, read-out: Ac2Kaa concentration required to neutralise MIC activity): 6.25 µg/mL (≈ 4.31 µM) | Molar excess of Ac2Kaa ligand required to antagonise antibacterial activity [5]: 100 | Molar excess of Ac2Kaa ligand required to antagonise antibacterial activity ([5]; listed as Vancomycin 1): 96 | CC50 at 24 h (Cytotoxicity MTT assay): 5.9 mM
